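Method: 48-hour compound exposure of cells in 96-well plates, five concentrations, linear interpolation of endpoints. At the GI50, growth is halved.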 The source made the active and inactive calls. Rule as the data show it: active = GI50 up to about 1.1 µM and inactive = higher.
Assays:
Experiment in all cases: growth of human tumour cells (NCI), 48 h
[1] = tested on: SK-MEL-28
[2] = tested on: NCI/ADR-RES
[3] = tested on: EKVX
[4] = tested on: PC-3
[5] = tested on: MDA-MB-231
[6] = tested on: MCF7
[7] = tested on: ACHN
[8] = tested on: MDA-N
[9] = tested on: Hs-578T
[10] = tested on: SR
[11] = tested on: A549
[12] = tested on: UO-31
[13] = tested on: SW-620
[14] = tested on: K562
[15] = tested on: COLO 205
[16] = tested on: NCI-H226
[17] = tested on: OVCAR-5
[18] = tested on: TK-10
[19] = tested on: SF-539
[20] = tested on: HOP-92

Measured: GI50

CCOC(=O)Nc1[nH]cc(-c2ccccc2)c1C#N
inactive: [1] > 100 µM | [2] > 100 µM | [3] > 100 µM | [4] > 100 µM | [5] > 100 µM | [6] > 100 µM | [7] > 100 µM | [8] > 100 µM | [9] > 100 µM | [10] > 100 µM | [11] > 100 µM | [12] > 100 µM | [13] > 100 µM | [14] > 100 µM | [15] > 100 µM | [16] > 100 µM | [17] > 100 µM | [18] > 100 µM

COC(=O)C1CC2(CCC1=O)Cc1ccccc1C2=O (configuration not stated)
inactive: [1] > 100 µM | [2] 99.5 µM | [3] 89.5 µM | [4] > 100 µM | [5] > 100 µM | [6] > 100 µM | [7] > 100 µM | [8] > 100 µM | [9] > 100 µM | [10] 37.8 µM | [11] > 100 µM | [12] > 100 µM | [13] > 100 µM | [14] 42.3 µM | [15] > 100 µM | [16] 47.4 µM | [17] > 100 µM | [18] > 100 µM | [19] > 100 µM

COc1cccc(C(=O)Nc2c3ccccc3nc3ccccc23)c1OC
inactive: [1] > 100 µM | [2] > 100 µM | [3] > 100 µM | [4] > 100 µM | [5] > 100 µM | [6] > 100 µM | [7] 45.5 µM | [8] > 100 µM | [9] 36.8 µM | [10] > 100 µM | [11] 84.9 µM | [12] 2.96 µM | [13] > 100 µM | [14] > 100 µM | [15] > 100 µM | [16] > 100 µM | [17] > 100 µM | [18] > 100 µM | [19] > 100 µM

COc1ccc([C@H]2[C@H]3COC(=O)[C@H]3C(C#N)=C3Sc4ccccc4N32)cc1
inactive: [1] 53.5 µM | [2] 15.5 µM | [3] 37.4 µM | [4] 17.3 µM | [5] 28.3 µM | [6] 27.3 µM | [7] 37.6 µM | [8] 28.8 µM | [9] 31.1 µM | [11] 30.5 µM | [12] 23.4 µM | [13] 48.6 µM | [14] 41.4 µM | [15] 15.3 µM | [20] 85.1 µM | [16] 33.1 µM | [17] 80.5 µM | [18] 40.6 µM | [19] 22.3 µM

O=C(O)C1C(C(=O)O)C2C(=O)C=CC1N2Cc1ccccc1 (configuration not stated)
inactive: [1] 4.29 µM | [2] 2.3 µM | [3] 3.06 µM | [4] 5.58 µM | [5] 3.16 µM | [6] 4.63 µM | [7] 4.18 µM | [8] 2.56 µM | [9] 2.82 µM | [11] 6.71 µM | [12] 1.71 µM | [13] 2.65 µM | [14] 6.67 µM | [15] 6.98 µM | [20] 9.55 µM | [16] 16 µM | [17] 6.22 µM | [18] 2.84 µM | [19] 2.8 µM

CC(=O)Oc1ccc2c(c1)O/C(=C\c1ccc(O)cc1)C2=O
inactive: [1] > 100 µM | [2] > 100 µM | [3] > 100 µM | [4] > 100 µM | [5] > 100 µM | [6] > 100 µM | [7] > 100 µM | [8] > 100 µM | [9] 27.5 µM | [10] > 100 µM | [11] > 100 µM | [12] > 100 µM | [13] > 100 µM | [14] > 100 µM | [15] > 100 µM | [16] > 100 µM | [18] > 100 µM | [19] > 100 µM

Reference: ChEMBL document CHEMBL1201862, “PubChem BioAssay data set” (2004)
